Experimental data from patent US8114865B2, “Indazole derivatives as kinase inhibitors for the treatment of cancer” (Nerviano Medical Sciences S.R.L., priority 2006, dated 2012).

What was measured:
ALK = target: T1, ALK (Homo sapiens, UniProt Q9UM73); assay: Biochemical assay for inhibitors of ALK kinase activity
T1 construct: ALK cytoplasmic domain, corresponding to residues 1060-1620; made in house; host or cells: Sf21 insect cells (baculovirus)
Description: ALK cytoplasmic domain, corresponding to residues 1060-1620 (the numbers of the amino acid residues refer to the Genbank accession number NP 004295.2) was PCR amplified from a human testis cDNA library.
For cloning purposes, the oligonucleotides included attB sites in order to obtain an attB-flanked PCR product suitable for cloning using the Gateway technology (Invitrogen). Furthermore, for purification purposes, forward primer included a PreScission cleavage site (Amersham Biosciences). The resulting PCR product was cloned in the baculovirus expression vector pVL1393 (Invitrogen), Gateway-modified. For expression and purification purposes, a GST tag was added N-terminal to the ALK cytoplasmic domain. Cloning was performed according to the protocols described in the Gateway manual (Invitrogen).
Baculovirus was generated by cotransfecting Sf9 insect cells with expression vector and the viral DNA using the BaculoGold™ transfection kit (Pharmingen).
Recombinant protein was produced by infecting Sf21 insect cells at the density of 1×10^6 cells/mL with 30 mL viral supernatant per billion cells with shaking at 27° C. After 48 hours of infections the cells were recovered, pelleted and frozen at −80° C.
Cells were resuspended in lysis buffer (Tris-HCl 50 mM pH8, NaCl 150 mM, CHAPS 0.2%, DTT 20 mM, glycerol 20%, “Complete” protease inhibitor cocktail (Roche Diagnostics), Na3VO4 1 mM and lysed by liquid extrusion with a Gaulin homogenizer (Niro Soavi Italy). The lysate was cleared by centrifugation at 20000 g for 30 minutes and loaded on a Glutathione Sepharose 4B (Amersham Biosciences) column.
After extensive wash, recombinant protein was eluted with 10 mM Glutathione in 100 mM Tris-HCl pH8, 10% glycerol.
Affinity purified GST-ALK was loaded on a Heparin Sepharose™ FF (Amersham Biosciences) column and eluted with 50 mM NaCl, 25 mM TRIS pH 7.5, 2 mM DTT, 20% glycerol.
The eluted fractions were pooled and dialyzed against 150 mM NaCl, 50 mM Tris-HCl pH 7.4, 2 mM DTT, 20% glycerol.
The in vitro kinase inhibition assay was conducted in the same way as described for IGF-1R. […]

IGF-1R = IGF-1R (Homo sapiens, UniProt P08069); assay: Western blot analysis of receptor phosphorylation following stimulation with IGF-1 in MCF-7 human breast cancer cells; assay type: cell-based; design: endogenous in cells; host or cells: MCF-7 (ATCC# HTB-22); conditions: starved MCF7 cells, 10 nM IGF1, increasing concentrations of compound, FIG. 1
Procedure: [formula] where νb is the baseline velocity, v is the observed reaction velocity, vo is the velocity in the absence of inhibitors, and [I] is the inhibitor concentration. Cell-Based Assays for Inhibitors of IGF-1R Kinase Activity Western Blot Analysis of Receptor Phosphorylation Following Stimulation with IGF-1 in MCF-7 Human Breast Cancer Cells
MCF-7 cells (ATCC# HTB-22) were seeded in 12-well tissue culture plates at 2×10^5 cells/well in E-MEM medium (MEM+Earle's BSS+2 mM glutamine+0.1 mM non-essential amino acids)+10% FCS, and incubated overnight at 37° C., 5% CO2, 100% relative humidity. Cells were then starved by replacing E-MEM+10% FCS with E-MEM+0.1% BSA, and incubating overnight. After this incubation, wells were treated with desired concentrations of compound for 1 hour at 37° C., and were then stimulated with 10 nM recombinant human IGF-1 (Invitrogen, Carlsbad, Calif., USA) for 10 minutes at 37° C. Cells were then washed with PBS and lysed in 100 microL/well cell lysis buffer (M-PER Mammalian Protein Extraction Reagent [Product #78501, Pierce, Rockford, Ill., USA]+10 mM EDTA+Protease inhibitor cocktail [Sigma-Aldrich product #P8340]+phosphatase inhibitor cocktail [Sigma-Aldrich products #P2850+#P5726]). Cell lysates were cleared by centrifugation at 10,000×g for 5 minutes, and 10 microg/lane of cleared lysate protein were run on NuPAGE gels (NuPAGE 4-12% 10-lane Bis-Tris gels, Invitrogen) with MOPS running buffer, then transferred onto Hybond-ECL nitrocellulose filters (Amersham Biosciences, Little Chalfont, Buckinghamshire, UK) using Mini PROTEAN II chambers (Bio-Rad Laboratories, Hercules, Calif., USA). […]

IGF-1R, sequence (P08069 31-1367): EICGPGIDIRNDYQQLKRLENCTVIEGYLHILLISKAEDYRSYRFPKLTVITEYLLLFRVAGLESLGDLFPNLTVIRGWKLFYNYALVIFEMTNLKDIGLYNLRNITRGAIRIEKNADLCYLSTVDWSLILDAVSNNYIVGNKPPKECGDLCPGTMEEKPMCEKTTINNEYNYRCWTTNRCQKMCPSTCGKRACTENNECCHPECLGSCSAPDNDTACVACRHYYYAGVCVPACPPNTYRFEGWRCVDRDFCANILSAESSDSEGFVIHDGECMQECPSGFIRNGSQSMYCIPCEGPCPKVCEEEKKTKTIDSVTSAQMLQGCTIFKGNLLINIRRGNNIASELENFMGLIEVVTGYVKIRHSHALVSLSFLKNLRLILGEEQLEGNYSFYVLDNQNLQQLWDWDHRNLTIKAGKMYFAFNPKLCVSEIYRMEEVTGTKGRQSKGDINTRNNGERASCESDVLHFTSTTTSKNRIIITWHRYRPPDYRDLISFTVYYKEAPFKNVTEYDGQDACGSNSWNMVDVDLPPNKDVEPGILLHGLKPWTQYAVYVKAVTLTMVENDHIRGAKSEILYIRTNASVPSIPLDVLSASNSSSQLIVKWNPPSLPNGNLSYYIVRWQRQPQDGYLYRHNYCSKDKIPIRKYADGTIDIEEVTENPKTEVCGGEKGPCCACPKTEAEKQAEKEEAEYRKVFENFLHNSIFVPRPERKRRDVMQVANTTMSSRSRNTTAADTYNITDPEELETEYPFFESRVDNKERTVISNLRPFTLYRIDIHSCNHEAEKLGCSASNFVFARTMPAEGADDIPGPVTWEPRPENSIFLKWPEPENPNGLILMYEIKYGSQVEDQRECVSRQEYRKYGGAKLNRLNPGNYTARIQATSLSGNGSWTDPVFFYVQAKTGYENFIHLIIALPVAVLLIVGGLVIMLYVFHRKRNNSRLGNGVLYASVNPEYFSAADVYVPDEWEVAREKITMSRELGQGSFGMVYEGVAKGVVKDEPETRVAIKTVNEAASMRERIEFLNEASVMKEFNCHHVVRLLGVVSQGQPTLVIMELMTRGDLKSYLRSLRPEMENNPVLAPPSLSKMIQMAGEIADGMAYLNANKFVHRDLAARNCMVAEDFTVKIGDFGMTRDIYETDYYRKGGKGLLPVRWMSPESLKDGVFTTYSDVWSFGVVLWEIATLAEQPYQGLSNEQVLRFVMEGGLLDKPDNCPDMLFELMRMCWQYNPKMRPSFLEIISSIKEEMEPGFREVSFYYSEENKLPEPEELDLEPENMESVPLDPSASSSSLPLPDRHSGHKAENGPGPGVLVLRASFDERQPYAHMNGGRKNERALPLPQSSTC
T1 sequence (Q9UM73 1060-1620): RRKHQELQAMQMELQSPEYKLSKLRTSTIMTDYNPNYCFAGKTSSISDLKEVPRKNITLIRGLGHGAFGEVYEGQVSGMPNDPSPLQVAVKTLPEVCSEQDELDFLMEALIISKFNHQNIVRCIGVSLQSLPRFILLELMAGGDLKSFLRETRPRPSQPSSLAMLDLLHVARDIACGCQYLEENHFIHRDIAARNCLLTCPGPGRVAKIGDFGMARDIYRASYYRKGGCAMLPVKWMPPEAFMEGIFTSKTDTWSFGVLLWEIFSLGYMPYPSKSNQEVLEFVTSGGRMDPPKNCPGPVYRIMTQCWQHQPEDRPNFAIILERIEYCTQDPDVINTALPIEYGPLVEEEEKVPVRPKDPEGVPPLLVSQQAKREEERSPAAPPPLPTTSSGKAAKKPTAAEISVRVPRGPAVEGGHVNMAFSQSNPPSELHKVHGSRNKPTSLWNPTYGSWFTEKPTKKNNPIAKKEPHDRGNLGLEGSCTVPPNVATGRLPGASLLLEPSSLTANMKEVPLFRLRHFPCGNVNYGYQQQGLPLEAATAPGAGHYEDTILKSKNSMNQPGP

IC50 (ALK) [nM]	SMILES	inhibition of IGF1-induced IGF1R auto-phosphorylation (IGF-1R)
340	CN1CCN(c2ccc(C(=O)Nc3n[nH]c4ccc(S(=O)(=O)c5ccccc5)cc34)cc2)CC1 [Compound 1, N-(5-Benzenesulfonyl-1H-indazol-3-yl)-4-(4-methyl-piperazin-1-yl)-benzamide]	inhibition of IGF1-induced IGF1R auto-phosphorylation
34	CN1CCN(c2ccc(C(=O)Nc3n[nH]c4ccc(S(=O)(=O)c5ccccc5)cc34)c(NC(=O)c3ccc[nH]3)c2)CC1 [Compound 33, 1H-pyrrole-2-carboxylic acid [2-(5-benzenesulfonyl-1H-indazol-3-ylcarbamoyl)-5-(4-methyl-piperazin-1-yl)-phenyl]amide]	inhibition of IGF1-induced IGF1R auto-phosphorylation
170	CN1CCN(c2ccc(C(=O)Nc3n[nH]c4ccc(S(=O)(=O)c5ccccc5)cc34)c(NC(=O)[C@@H]3CCCO3)c2)CC1 [Compound 36, (S)-Tetrahydro-furan-2-carboxylic acid [2-(5-benzenesulfonyl-1H-indazol-3-ylcarbamoyl)-5-(4-methyl-piperazin-1-yl)-phenyl]-amide]	inhibition of IGF1-induced IGF1R auto-phosphorylation
